Test results from PubChem BioAssay AID1963871 (Molecular Pharmacology Branch, DTP, NCI, 2024).

System: KRAS-mutant PDC multicell tumor spheroid viability
Test: Anticancer human tumor 521955-158-R2-J5-PDC patient-derived pancreatic carcinoma cell line growth inhibition [KRAS2]
Settings: for IC50: curve of first compound; for viability, T/C: stronger effect = lower value
Summary of the method: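 KRAS-mutant tumor cells were grown as spheroids with HUVEC endothelial cells and human MSCs as stroma. Targeted agents were tested alone and with KRAS pathway inhibitors. Doses started at or near clinical Cmax, or 10 microM, descending half-log.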

[1] = second compound 0.1 µM, first compound 0.0316 µM
[2] = second compound 0.1 µM, first compound 0.1 µM
[3] = second compound 0.1 µM, first compound 0.316 µM
[4] = second compound 0.1 µM, first compound 1 µM
[5] = second compound 0.1 µM, first compound 3.16 µM
[6] = second compound 0.1 µM, first compound 10 µM
[7] = second compound 0.316 µM, first compound 0.0316 µM
[8] = second compound 0.316 µM, first compound 0.1 µM
[9] = second compound 0.316 µM, first compound 0.316 µM
[10] = second compound 0.316 µM, first compound 1 µM
[11] = second compound 0.316 µM, first compound 3.16 µM
[12] = second compound 0.316 µM, first compound 10 µM
[13] = second compound 1 µM, first compound 0.0316 µM
[14] = second compound 1 µM, first compound 0.1 µM
[15] = second compound 1 µM, first compound 0.316 µM
[16] = second compound 1 µM, first compound 1 µM
[17] = second compound 1 µM, first compound 3.16 µM
[18] = second compound 1 µM, first compound 10 µM
[19] = second compound 3.16 µM, first compound 0.0316 µM
[20] = second compound 3.16 µM, first compound 0.1 µM
[21] = second compound 3.16 µM, first compound 0.316 µM
[22] = second compound 3.16 µM, first compound 1 µM
[23] = second compound 3.16 µM, first compound 3.16 µM
[24] = second compound 3.16 µM, first compound 10 µM
[25] = second compound 10 µM, first compound 0.0316 µM
[26] = second compound 10 µM, first compound 0.1 µM
[27] = second compound 10 µM, first compound 0.316 µM
[28] = second compound 10 µM, first compound 1 µM
[29] = second compound 10 µM, first compound 3.16 µM
[30] = second compound 10 µM, first compound 10 µM
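Also: viability read after seven days of drug exposure.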

COc1cc(Nc2ncc3c(n2)-c2ccc(Cl)cc2C(c2c(F)cccc2OC)=NC3)ccc1C(=O)O + CC1OCC2(CCN(c3cnc(Sc4ccnc(N)c4Cl)c(N)n3)CC2)C1N
IC50 (second compound 0.1 µM): < 31.6 nM
IC50 (second compound 0.316 µM): < 31.6 nM
IC50 (second compound 1 µM): < 31.6 nM
IC50 (second compound 3.16 µM): < 31.6 nM
IC50 (second compound 10 µM): < 31.6 nM
viability, T/C [1]: 44.6%
viability, T/C [2]: 45.2%
viability, T/C [3]: 39.7%
viability, T/C [4]: 38.8%
viability, T/C [5]: 37.2%
viability, T/C [6]: 37.4%
viability, T/C [7]: 41%
viability, T/C [8]: 39.3%
viability, T/C [9]: 45.5%
viability, T/C [10]: 34.4%
viability, T/C [11]: 36.4%
viability, T/C [12]: 35.8%
viability, T/C [13]: 39.5%
viability, T/C [14]: 35.1%
viability, T/C [15]: 38.1%
viability, T/C [16]: 36%
viability, T/C [17]: 34.5%
viability, T/C [18]: 30.5%
viability, T/C [19]: 38.4%
viability, T/C [20]: 31.1%
viability, T/C [21]: 30.8%
viability, T/C [22]: 30%
viability, T/C [23]: 28.2%
viability, T/C [24]: 33.6%
viability, T/C [25]: 37.8%
viability, T/C [26]: 37.7%
viability, T/C [27]: 36%
viability, T/C [28]: 37.1%
viability, T/C [29]: 27.1%
viability, T/C [30]: 31.1%

CC(C)NCC(C(=O)N1CCN(c2ncnc3c2C(C)CC3O)CC1)c1ccc(Cl)cc1 (stereo not given) + CC1OCC2(CCN(c3cnc(Sc4ccnc(N)c4Cl)c(N)n3)CC2)C1N
IC50 (second compound 0.1 µM): > 10000 nM
IC50 (second compound 0.316 µM): > 10000 nM
IC50 (second compound 1 µM): 1080 nM
IC50 (second compound 3.16 µM): 287 nM
IC50 (second compound 10 µM): 483 nM
viability, T/C [1]: 67.8%
viability, T/C [2]: 82.7%
viability, T/C [3]: 67.7%
viability, T/C [4]: 61.8%
viability, T/C [5]: 74.3%
viability, T/C [6]: 53.7%
viability, T/C [7]: 65.3%
viability, T/C [8]: 66.8%
viability, T/C [9]: 55.4%
viability, T/C [10]: 60.3%
viability, T/C [11]: 61.2%
viability, T/C [12]: 48.7%
viability, T/C [13]: 62%
viability, T/C [14]: 60.9%
viability, T/C [15]: 46.5%
viability, T/C [16]: 51.3%
viability, T/C [17]: 53.3%
viability, T/C [18]: 39.5%
viability, T/C [19]: 56.5%
viability, T/C [20]: 57.8%
viability, T/C [21]: 43.1%
viability, T/C [22]: 41.5%
viability, T/C [23]: 48.4%
viability, T/C [24]: 27.7%
viability, T/C [25]: 54.1%
viability, T/C [26]: 66.9%
viability, T/C [27]: 51.2%
viability, T/C [28]: 38%
viability, T/C [29]: 41.5%
viability, T/C [30]: 20.7%

CCNC(=O)CC1N=C(c2ccc(Cl)cc2)c2cc(OC)ccc2-n2c(C)nnc21 (stereo not given) + CC1OCC2(CCN(c3cnc(Sc4ccnc(N)c4Cl)c(N)n3)CC2)C1N
IC50 (second compound 0.1 µM): 289 nM
IC50 (second compound 0.316 µM): 172 nM
IC50 (second compound 1 µM): 127 nM
IC50 (second compound 3.16 µM): 132 nM
IC50 (second compound 10 µM): 92.9 nM
viability, T/C [1]: 71.5%
viability, T/C [2]: 71.2%
viability, T/C [3]: 47.3%
viability, T/C [4]: 33.8%
viability, T/C [5]: 26.5%
viability, T/C [6]: 28.7%
viability, T/C [7]: 76.3%
viability, T/C [8]: 61.1%
viability, T/C [9]: 36.9%
viability, T/C [10]: 29.7%
viability, T/C [11]: 23.6%
viability, T/C [12]: 22.6%
viability, T/C [13]: 66%
viability, T/C [14]: 51.5%
viability, T/C [15]: 40.4%
viability, T/C [16]: 25.7%
viability, T/C [17]: 19.6%
viability, T/C [18]: 20.8%
viability, T/C [19]: 65.8%
viability, T/C [20]: 52.2%
viability, T/C [21]: 40%
viability, T/C [22]: 23.5%
viability, T/C [23]: 20%
viability, T/C [24]: 20.4%
viability, T/C [25]: 60.7%
viability, T/C [26]: 47.8%
viability, T/C [27]: 35.7%
viability, T/C [28]: 20.6%
viability, T/C [29]: 15.9%
viability, T/C [30]: 16.9%

COc1cc2nccc(Oc3ccc(NC(=O)C4(C(=O)Nc5ccc(F)cc5)CC4)cc3)c2cc1OC
viability, T/C (compound 0.0316 µM): 99.7% [middle of 5 runs]
viability, T/C (compound 0.1 µM): 98.8% [middle of 4 runs]
viability, T/C (compound 0.316 µM): 103% [middle of 5 runs]
viability, T/C (compound 1 µM): 109% [middle of 5 runs]
viability, T/C (compound 10 µM): 39.7% [middle of 5 runs]

CC(=O)Nc1cccc(-n2c(=O)n(C3CC3)c(=O)c3c(Nc4ccc(I)cc4F)n(C)c(=O)c(C)c32)c1 + C=CC(=O)N1CCN(c2nc(OCC3CCCN3C)nc3c2CCN(c2cccc4cccc(C)c24)C3)CC1CC#N
IC50 (second compound 0.0316 µM): 0.288 nM
IC50 (second compound 0.1 µM): 0.289 nM
IC50 (second compound 0.316 µM): 0.194 nM
IC50 (second compound 1 µM): 0.245 nM
IC50 (second compound 3.16 µM): < 0.1 nM
viability, T/C (second compound 0.0316 µM, first compound 0.0001 µM): 74.2%
viability, T/C (second compound 0.0316 µM, first compound 0.000316 µM): 44.9%
viability, T/C (second compound 0.0316 µM, first compound 0.001 µM): 34.6%
viability, T/C (second compound 0.0316 µM, first compound 0.00316 µM): 26.5%
viability, T/C (second compound 0.0316 µM, first compound 0.01 µM): 20.1%
viability, T/C (second compound 0.0316 µM, first compound 0.0316 µM): 15%
viability, T/C (second compound 0.1 µM, first compound 0.0001 µM): 61.9%
viability, T/C (second compound 0.1 µM, first compound 0.000316 µM): 51.6%
viability, T/C (second compound 0.1 µM, first compound 0.001 µM): 30.3%
viability, T/C (second compound 0.1 µM, first compound 0.00316 µM): 23.8%
viability, T/C (second compound 0.1 µM, first compound 0.01 µM): 18.4%
viability, T/C [1]: 10.5%
viability, T/C (second compound 0.316 µM, first compound 0.0001 µM): 57.5%
viability, T/C (second compound 0.316 µM, first compound 0.000316 µM): 46.9%
viability, T/C (second compound 0.316 µM, first compound 0.001 µM): 27.5%
viability, T/C (second compound 0.316 µM, first compound 0.00316 µM): 21.7%
viability, T/C (second compound 0.316 µM, first compound 0.01 µM): 18.9%
viability, T/C [7]: 8.09%
viability, T/C (second compound 1 µM, first compound 0.0001 µM): 69.7%
viability, T/C (second compound 1 µM, first compound 0.000316 µM): 43.6%
viability, T/C (second compound 1 µM, first compound 0.001 µM): 27.8%
viability, T/C (second compound 1 µM, first compound 0.00316 µM): 24.3%
viability, T/C (second compound 1 µM, first compound 0.01 µM): 18.2%
viability, T/C [13]: 9.76%
viability, T/C (second compound 3.16 µM, first compound 0.0001 µM): 3.74%
viability, T/C (second compound 3.16 µM, first compound 0.000316 µM): 5.29%
viability, T/C (second compound 3.16 µM, first compound 0.001 µM): 0.31%
viability, T/C (second compound 3.16 µM, first compound 0.00316 µM): 1.92%
viability, T/C (second compound 3.16 µM, first compound 0.01 µM): 0.67%
viability, T/C [19]: 0.24%

COc1cc2nccc(Oc3ccc(NC(=O)C4(C(=O)Nc5ccc(F)cc5)CC4)cc3)c2cc1OC + CC1OCC2(CCN(c3cnc(Sc4ccnc(N)c4Cl)c(N)n3)CC2)C1N
IC50 (second compound 0.1 µM): 8050 nM
IC50 (second compound 0.316 µM): 5530 nM
IC50 (second compound 1 µM): 4800 nM
IC50 (second compound 3.16 µM): < 31.6 nM
IC50 (second compound 10 µM): 1090 nM
viability, T/C [1]: 75.7%
viability, T/C [2]: 90.5%
viability, T/C [3]: 74.8%
viability, T/C [4]: 77.8%
viability, T/C [5]: 64.1%
viability, T/C [6]: 46.7%
viability, T/C [7]: 64.3%
viability, T/C [8]: 74.3%
viability, T/C [9]: 63.5%
viability, T/C [10]: 71%
viability, T/C [11]: 60.3%
viability, T/C [12]: 37.8%
viability, T/C [13]: 66.8%
viability, T/C [14]: 64.5%
viability, T/C [15]: 65.6%
viability, T/C [16]: 60.6%
viability, T/C [17]: 61%
viability, T/C [18]: 32%
viability, T/C [19]: 42.4%
viability, T/C [20]: 46.4%
viability, T/C [21]: 51.4%
viability, T/C [22]: 52.5%
viability, T/C [23]: 46.8%
viability, T/C [24]: 46.2%
viability, T/C [25]: 44.9%
viability, T/C [26]: 48.7%
viability, T/C [27]: 53.2%
viability, T/C [28]: 56.5%
viability, T/C [29]: 40.1%
viability, T/C [30]: 27.7%
